According to patent US20210276967A1 (OSPEDALE SAN RAFFAELE S.R.L., priority 2018, published 2021):

Columns and labels:
Assay type in all cases: cell-based
HBV genotype C = test: Antiviral activity in HepG2 cells transfected with HBV genotype C plasmid, extracellular HBV DNA qPCR; conditions: Hepatitis B virus, read-out: HBV inhibition EC50 (Mean ± StD)
Description: (§1) HepG2 hepatoma cells transfected with HBV plasmids corresponding to the different isolates were used to perform antiviral assay against different HBV genotypes. HBV plasmids were obtained by cloning fragment containing of 1.1-mer HBV genome into the SacI/SaII sites of pcDNA3.1zeo(−) plasmid (V86520, Thermofisher Scientific). The HepG2 cell line was maintained in DMEM, supplemented with 10% of FBS, 1% glutamine and 1% penicillin/streptomycin.
(§2) HBV inhibition activity was determined on different HBV genotypes. For this purpose plasmids pcDNA3.1Zeo(−)-HBV1.1 expressing HBV genotypes A, B, C, D, E were transfected in HepG2 cell line and extracellular HBV quantification was performed by direct qPCR as described above. In detail, cells were seeded at 20,000 cells/well in polylisine coated 96-multiwell plates and 24 h later HBV plasmids were transfected with lipofection using manufacturer's procedure (Lipofectamine 3000 Reagent, Thermofisher Scientific). Five hours after transfection cells were extensively washed with PBS and compounds were added in 8-point dose-response curve in 0.5% DMSO as described above. After 4 days of incubation at 37° C. cells were subjected to cell viability assays and extracellular HBV quantification, in order to evaluate both the cytotoxic potential and the anti-viral activity of compounds, as described above. […]

HBV genotype D = test: Antiviral activity in HepG2 cells transfected with HBV genotype D plasmid, extracellular HBV DNA qPCR; conditions: Hepatitis B virus, read-out: HBV inhibition EC50 (Mean ± StD)
Description: as §1, §2

HBV genotype E = test: Antiviral activity in HepG2 cells transfected with HBV genotype E plasmid, extracellular HBV DNA qPCR; conditions: Hepatitis B virus, read-out: HBV inhibition EC50 (Mean ± StD)
Description: as §1, §2

[1] = tested on: HBV (HBeAg, surrogate of cccDNA biogenesis); test: In vitro HBV infection of HepG2-NTCP cells, extracellular HBeAg ELISA (establishment of HBV cccDNA); conditions: Hepatitis B virus, 144 h, 6 days, read-out: HBeAg* inhibition EC50 (Mean ± StD, μM) *surrogate of cccDNA biogenesis
Source text: HepG2-NTCP hepatoma cell line was used to conduct the infection experiments. HepG2-NTCP was obtained by ectopic expression in HepG2 cells of the human Sodium Taurocholate Cotransporting Polypeptide receptor (hNTCP) using a lentiviral vector expressing human NTCP (Seeger et al., Molecular Therapy-Nucleic Acids, 2014). hNTCP was recently identified as HBV receptor (Yan H. et al., Elife. Nov. 13, 2012; 3). The complete viral life cycle of HBV could be obtained in the HepG2-NTCP cell line. HepG2-NTCP cells were maintained in DMEM, supplemented with 10% of FBS, 1% glutamine and 1% penicillin/streptomycin.
The ability of compounds to inhibit the establishment of HBV cccDNA in infected cells was investigated in an in vitro model of HBV infection. For this purpose HepG2-NTCP cell line, engineered to stably express the HBV receptor human sodium taurocholate cotrasporting polypeptide (hNTCP), was used and HBV particles were produced in HepAD38 following standard published procedure (Hepatitis B methods and protocols, Guo H., Cuconati, A.; 2017; Humana press). In detail HepG2-NTCP were seeded at 20.000 cells/well in collagen coated 96 multiwell plates. […] The ability of compounds to inhibit the establishment of HBV cccDNA was evaluated by quantification of extracellular HBeAg with ELISA (Elisa Kit HBE.CE. Manufacturer: DIA.PRO). […]

Cc1cc(N)c(S(N)(=O)=O)cc1C(=O)Nc1cc(F)c(F)c(F)c1 [Example E17, 4-amino-2-methyl-5-sulfamoyl-N-(3,4,5-trifluorophenyl)benzamide]
EC50 (HBV genotype C): 0.0282 ± 0.0108 µM | EC50 (HBV genotype D): 0.0387 ± 0.0111 µM | EC50 (HBV genotype E): 0.0512 ± 0.0136 µM | EC50 [1]: 0.147 µM
